Patent US9487501B2, “Pyrazole carboxamide compounds and uses thereof” (Hoffmann-La Roche Inc., priority 2012, dated 2016)
Structures can show the parent of a compound that is named as a salt. Where two headings read alike, the source gives them in different places.

Legend:
rat TAAR1 = rat TAAR1 (Rattus norvegicus (Rat), UniProt Q923Y9); test: Radioligand binding assay on rat TAAR1;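 note: stably transfected HEK293 cell membranes with a tritiated radioligand, 1 h incubation at 4 °C, nonspecific binding taken as binding with 10 µM unlabeled ligand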
mouse TAAR1 = mouse TAAR1 (Mus musculus (Mouse), UniProt Q923Y8); test: Radioligand binding assay on mouse TAAR1
[1] = read-out: Ki (μM) rat, rat TAAR1, membranes of HEK-293 cells, radioligand displacement
[2] = read-out: Ki (μM) mouse, mouse TAAR1, membranes of HEK-293 cells, radioligand displacement

Chain of mouse TAAR1 (Q923Y8 whole entry): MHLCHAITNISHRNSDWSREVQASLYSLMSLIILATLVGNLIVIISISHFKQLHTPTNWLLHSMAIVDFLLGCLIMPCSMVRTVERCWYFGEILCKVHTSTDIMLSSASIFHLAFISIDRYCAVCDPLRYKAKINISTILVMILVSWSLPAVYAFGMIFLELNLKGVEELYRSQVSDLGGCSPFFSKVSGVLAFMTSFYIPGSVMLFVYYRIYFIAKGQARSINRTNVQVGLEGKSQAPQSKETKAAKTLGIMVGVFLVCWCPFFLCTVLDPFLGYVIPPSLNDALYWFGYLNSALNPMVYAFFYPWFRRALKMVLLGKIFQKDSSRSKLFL
Chain of rat TAAR1 (Q923Y9 whole entry): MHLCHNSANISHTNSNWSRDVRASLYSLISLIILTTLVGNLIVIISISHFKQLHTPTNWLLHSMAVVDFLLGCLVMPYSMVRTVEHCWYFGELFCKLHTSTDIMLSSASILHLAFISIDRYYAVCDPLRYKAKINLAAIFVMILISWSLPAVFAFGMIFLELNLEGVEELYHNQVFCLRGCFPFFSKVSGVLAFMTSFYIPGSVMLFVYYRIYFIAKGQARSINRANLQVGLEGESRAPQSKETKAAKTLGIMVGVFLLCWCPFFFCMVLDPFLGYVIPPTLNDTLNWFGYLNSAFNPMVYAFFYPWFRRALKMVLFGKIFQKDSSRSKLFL

| Structure (SMILES) | Ki (rat TAAR1; [1]) [µM] | Ki (mouse TAAR1; [2]) [µM] | further results |
| --- | --- | --- | --- |
| CCN(C[C@H]1COC(N)=N1)c1ccccc1 [reference compound] |  |  | Kd (rat TAAR1; read-out: dissociation constant (Kd) of the radioligand, rat TAAR1 membranes, saturation curve): ~2.3 nM; Kd (mouse TAAR1; read-out: dissociation constant (Kd) of the radioligand, mouse TAAR1 membranes, saturation curve): ~0.7 nM |
| O=C(Nc1ccc(C2CCCNC2)cc1)c1cnn(-c2ccc(OC(F)F)cc2)c1 (racemic) [Example 55, (RS)-1-(4-difluoromethoxy-phenyl)-1H-pyrazole-4-carboxylic acid (4-piperidin-3-yl-phenyl)-amide hydrochloride] |  |  | Ki (rat TAAR1): 0.003 µM; Ki (mouse TAAR1): 0.002 µM |
| N#Cc1ccc(-n2cc(C(=O)Nc3ccc([C@H]4CNCCO4)cc3)cn2)cc1 [Example 6, (S)-1-(4-cyanophenyl)-N-(4-(morpholin-2-yl)phenyl)-1H-pyrazole-4-carboxamide hydrochloride] | 0.007 | 0.0028 |  |
| O=C(Nc1ccc([C@H]2CNCCO2)cc1)c1cnn(-c2ccc(I)cn2)c1 [Example 10, (S)-1-(5-iodopyridin-2-yl)-N-(4-(morpholin-2-yl)phenyl)-1H-pyrazole-4-carboxamide hydrochloride] | 0.0041 | 0.0012 |  |
| N#Cc1ccc(-n2cc(C(=O)Nc3ccc([C@@H]4CNCCO4)cc3)cn2)c(F)c1 [Example 49, (R)-1-(4-cyano-2-fluorophenyl)-N-(4-(morpholin-2-yl)phenyl)-1H-pyrazole-4-carboxamide hydrochloride] | 0.0033 | 0.0049 |  |
| O=C(Nc1ccc([C@H]2CNCCO2)cc1)c1cnn(-c2cc(C(F)(F)F)ccn2)c1 [Example 14, (S)—N-(4-(morpholin-2-yl)phenyl)-1-(4-(trifluoromethyl)pyridin-2-yl)-1H-pyrazole-4-carboxamide hydrochloride] | 0.0019 | 0.0013 |  |
| O=C(Nc1ccc([C@H]2CNCCO2)cc1)c1cnn(-c2nc(C(F)(F)F)cs2)c1 [Example 57, (S)—N-(4-(morpholin-2-yl)phenyl)-1-(4-(trifluoromethyl)thiazol-2-yl)-1H-pyrazole-4-carboxamide hydrochloride] | 0.0011 | 0.0019 |  |
| O=C(Nc1ccc([C@H]2CNCCO2)cc1)c1cnn(-c2cncc(Cl)n2)c1 [Example 33, (S)-1-(6-chloropyrazin-2-yl)-N-(4-(morpholin-2-yl)phenyl)-1H-pyrazole-4-carboxamide hydrochloride] | 0.0068 | 0.0032 |  |
| Cc1c(C(=O)Nc2ccc([C@H]3CNCCO3)cc2)cnn1-c1ccc(OC(F)F)cc1 [Example 31, (S)-1-(4-(difluoromethoxy)phenyl)-5-methyl-N-(4-(morpholin-2-yl)phenyl)-1H-pyrazole-4-carboxamide hydrochloride] | 0.045 | 0.0013 |  |
| N#Cc1ccc(-n2cc(C(=O)Nc3ccc([C@H]4CNCCO4)cc3)cn2)nc1 [Example 8, (S)-1-(5-cyanopyridin-2-yl)-N-(4-(morpholin-2-yl)phenyl)-1H-pyrazole-4-carboxamide hydrochloride] | 0.0147 | 0.0089 |  |
| N#Cc1ccc(-n2cc(C(=O)Nc3ccc([C@H]4CNCCO4)cc3)cn2)cc1F [Example 24, (S)-1-(4-cyano-3-fluorophenyl)-N-(4-(morpholin-2-yl)phenyl)-1H-pyrazole-4-carboxamide hydrochloride] | 0.0154 | 0.0175 |  |
| Cc1c(C(=O)Nc2ccc([C@H]3CNCCO3)cc2)cnn1-c1ccccc1 [Example 1, (S)-5-methyl-N-(4-(morpholin-2-yl)phenyl)-1-phenyl-1H-pyrazole-4-carboxamide hydrochloride] | 0.229 | 0.0086 |  |
| N#Cc1ccc(-n2cc(C(=O)Nc3ccc([C@H]4CNCCO4)cc3)cn2)c(F)c1 [Example 23, (S)-1-(4-cyano-2-fluorophenyl)-N-(4-(morpholin-2-yl)phenyl)-1H-pyrazole-4-carboxamide hydrochloride] | 0.007 | 0.0041 |  |
| O=C(Nc1ccc([C@H]2CNCCO2)cc1)c1cnn(-c2ccnc(C(F)(F)F)n2)c1 [Example 34, (S)—N-(4-(morpholin-2-yl)phenyl)-1-(2-(trifluoromethyl)pyrimidin-4-yl)-1H-pyrazole-4-carboxamide hydrochloride] | 0.0035 | 0.0054 |  |
| O=C(Nc1ccc([C@H]2CNCCO2)cc1)c1cnn(-c2ncc(C(F)(F)F)cn2)c1 [Example 37, (S)—N-(4-(morpholin-2-yl)phenyl)-1-(5-(trifluoromethyl)pyrimidin-2-yl)-1H-pyrazole-4-carboxamide hydrochloride] | 0.0931 | 0.0615 |  |
| O=C(Nc1ccc([C@H]2CNCCO2)cc1)c1cnn(-c2ccnc(C(F)(F)F)c2)c1 [Example 50, (S)—N-(4-(morpholin-2-yl)phenyl)-1-(2-(trifluoromethyl)pyridin-4-yl)-1H-pyrazole-4-carboxamide hydrochloride] | 0.0038 | 0.0077 |  |
| O=C(Nc1ccc([C@H]2CNCCO2)cc1)c1cnn(-c2ncc(Cl)cn2)c1 [Example 30, (S)-1-(5-chloropyrimidin-2-yl)-N-(4-(morpholin-2-yl)phenyl)-1H-pyrazole-4-carboxamide hydrochloride] | 0.135 | 0.0166 |  |
| O=C(Nc1ccc([C@H]2CNCCO2)cc1)c1cnn(-c2ccc3c(c2)OC(F)(F)O3)c1 [Example 29, (S)-1-(2,2-difluorobenzo[d][1,3]dioxol-5-yl)-N-(4-(morpholin-2-yl)phenyl)-1H-pyrazole-4-carboxamide hydrochloride] | 0.0014 | 0.0023 |  |
| O=C(Nc1ccc([C@H]2CNCCO2)cc1)c1cnn(-c2cccc(F)c2)c1 [Example 5, (S)-1-(3-fluorophenyl)-N-(4-(morpholin-2-yl)phenyl)-1H-pyrazole-4-carboxamide hydrochloride] | 0.0039 | 0.0015 |  |
| COc1ccc(-n2cc(C(=O)Nc3ccc([C@H]4CNCCO4)cc3)cn2)cc1 [Example 3, (S)-1-(4-methoxyphenyl)-N-(4-(morpholin-2-yl)phenyl)-1H-pyrazole-4-carboxamide hydrochloride] | 0.0165 | 0.0025 |  |
| O=C(Nc1ccc([C@H]2CNCCO2)cc1)c1cnn(-c2ccc(C(F)(F)F)cn2)c1 [Example 11, (S)—N-(4-(morpholin-2-yl)phenyl)-1-(5-(trifluoromethyl)pyridin-2-yl)-1H-pyrazole-4-carboxamide hydrochloride] | 0.0023 | 0.0023 |  |

Continued, in another order:

| Ki (rat TAAR1; [1]) [µM] | Ki (mouse TAAR1; [2]) [µM] | Structure (SMILES) | further results |
| --- | --- | --- | --- |
| 0.126 | 0.0119 | Cc1cnc(-n2cc(C(=O)Nc3ccc([C@H]4CNCCO4)cc3)cn2)cn1 [Example 40, (S)-1-(5-methylpyrazin-2-yl)-N-(4-(morpholin-2-yl)phenyl)-1H-pyrazole-4-carboxamide hydrochloride] |  |
| 0.0451 | 0.0179 | N#Cc1nccnc1-n1cc(C(=O)Nc2ccc([C@H]3CNCCO3)cc2)cn1 [Example 52, (S)-1-(3-cyanopyrazin-2-yl)-N-(4-(morpholin-2-yl)phenyl)-1H-pyrazole-4-carboxamide hydrochloride] |  |
| 0.0052 | 0.0051 | O=C(Nc1ccc([C@H]2CNCCO2)cc1)c1cnn(-c2cc(C3CC3)ncn2)c1 [Example 56, (S)-1-(6-cyclopropylpyrimidin-4-yl)-N-(4-(morpholin-2-yl)phenyl)-1H-pyrazole-4-carboxamide hydrochloride] |  |
| 0.0011 | 0.0012 | O=C(Nc1ccc([C@@H]2CNCCO2)cc1)c1cnn(-c2ccc(F)cc2)c1 [Example 12, (R)-1-(4-fluorophenyl)-N-(4-(morpholin-2-yl)phenyl)-1H-pyrazole-4-carboxamide hydrochloride] |  |
| 0.0056 | 0.0031 | O=C(Nc1ccc([C@H]2CNCCO2)cc1)c1cnn(-c2cnc(Cl)cn2)c1 [Example 46, (S)-1-(5-chloropyrazin-2-yl)-N-(4-(morpholin-2-yl)phenyl)-1H-pyrazole-4-carboxamide hydrochloride] |  |
| 0.0005 | 0.0007 | O=C(Nc1ccc([C@H]2CNCCO2)cc1)c1cnn(-c2ccc(OC(F)(F)F)cc2)c1 [Example 26, (S)—N-(4-(morpholin-2-yl)phenyl)-1-(4-(trifluoromethoxy)phenyl)-1H-pyrazole-4-carboxamide hydrochloride] |  |
| 0.004 | 0.0017 | O=C(Nc1ccc([C@H]2CNCCO2)cc1)c1cnn(-c2ccc(OC(F)F)cc2)c1 [Example 21, (S)-1-(4-(difluoromethoxy)phenyl)-N-(4-(morpholin-2-yl)phenyl)-1H-pyrazole-4-carboxamide hydrochloride] |  |
| 0.0015 | 0.0021 | N#Cc1cc(Br)ccc1-n1cc(C(=O)Nc2ccc([C@H]3CNCCO3)cc2)cn1 [Example 17, (S)-1-(4-bromo-2-cyanophenyl)-N-(4-(morpholin-2-yl)phenyl)-1H-pyrazole-4-carboxamide hydrochloride] |  |
| 0.0059 | 0.0214 | O=C(Nc1ccc([C@H]2CNCCO2)cc1)c1cnn(-c2cnc(C(F)(F)F)nc2)c1 [Example 45, (S)—N-(4-(morpholin-2-yl)phenyl)-1-(2-(trifluoromethyl)pyrimidin-5-yl)-1H-pyrazole-4-carboxamide hydrochloride] |  |
| 0.001 | 0.0013 | O=C(Nc1ccc([C@@H]2CNCCO2)cc1)c1cnn(-c2ccc(OC(F)F)cc2)c1 [Example 27, (R)-1-(4-(difluoromethoxy)phenyl)-N-(4-(morpholin-2-yl)phenyl)-1H-pyrazole-4-carboxamide hydrochloride] |  |
| 0.016 | 0.0135 | O=C(Nc1ccc([C@H]2CNCCO2)cc1)c1cnn(-c2ncc(C(F)(F)F)cc2F)c1 [Example 19, (S)-1-(3-fluoro-5-(trifluoromethyl)pyridin-2-yl)-N-(4-(morpholin-2-yl)phenyl)-1H-pyrazole-4-carboxamide hydrochloride] |  |
| 0.0046 | 0.0016 | O=C(Nc1ccc([C@H]2CNCCO2)cc1)c1cnn(-c2ccc(Cl)cn2)c1 [Example 7, (S)-1-(5-chloropyridin-2-yl)-N-(4-(morpholin-2-yl)phenyl)-1H-pyrazole-4-carboxamide hydrochloride] |  |
